Results published in the supplement of paper PMC11208160.

Test: recombinant UMI read abundance after kanamycin selection (control-corrected) (log10(CPM+1)); higher = more efficient recombination; extreme values may be limits of the assay; sequences stand for … in AGTGCAGAGAAAATCGGCCAGTTTTCTCTGCCTGCAGTCCGCATGCCGTGGGACCCCTTGGGTTCTAACCTGTTGCCTAGATTTATGCAGCGGACTGCCTTTCTCCCAAAGTGATAAACCGG…AGGTTGGTTTCACT; site = the 11-nt donor
Summary of the method: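 Counts of recombinant UMIs were reported as log10(CPM+1). Before that, they were converted to CPM, averaged over replicates and scaled using control-derived factors. They came from PCR across the donor–target junction after Escherichia coli carrying the pair library and target plasmid was plated on IPTG (0.07 mM) plus kanamycin, or unselected, in two replicates each.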
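Further: IS621 bridge recombinase in Escherichia coli cells against a fixed T5 target plasmid.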

Which “recombinant UMI read abundance (log10)” value does the source give for “TTGCCGGCATGGACCGGTTTTCCCGGTAATCCGTATTTGGC (site TGGCCGGCTGC)” here?
The value was 0.

Which “recombinant UMI read abundance (log10)” value does the source give for “TTGCCGGCATGGACCGGTTTTCCCGGTAATCCGTATTTGGC (site TTGCCGGCTGC)” here?
The value was 0.

With “TTGCCGTCATGGACCGGTTTTCCCGGTAATCCGTATTTGGC (site TTGCCGTCTGC)” as the sequence, how does the “recombinant UMI read abundance (log10)” value read?
The value was 0.

For “TTGCTAGCATGGACCGGTTTTCCCGGTAATCCGTATTTGAA (site TAGCTAGCTTT)”, which “recombinant UMI read abundance (log10)” value is on record?
The value was 0.016.

For “TTGCTAGCATGGACCGGTTTTCCCGGTAATCCGTATTTGAA (site TCGCTAGCTTT)”, which “recombinant UMI read abundance (log10)” value is on record?
The value was 0.0147.

For “TTGCTAGCATGGACCGGTTTTCCCGGTAATCCGTATTTGAA (site TGGCTAGCTTT)”, which “recombinant UMI read abundance (log10)” value is on record?
The value was 0.0255.

For “TTGCTAGCATGGACCGGTTTTCCCGGTAATCCGTATTTGAA (site TTGCTAGCTTT)”, which “recombinant UMI read abundance (log10)” value is on record?
The value was 0.252.

Which “recombinant UMI read abundance (log10)” value does the source give for “TTGCTGTCATGGACCGGTTTTCCCGGTAATCCGTATTTGAT (site TTGCTGTCTAT)” here?
The value was 0.00531.

Which “recombinant UMI read abundance (log10)” value does the source give for “TTGGAATCATGGACCGGTTTTCCCGGTAATCCGTATTTGCA (site TTGGAATCTTG)” here?
Its value is 2.76.

With “TTGGCACCATGGACCGGTTTTCCCGGTAATCCGTATTTGAG (site TTGGCACCTCT)” as the sequence, how does the “recombinant UMI read abundance (log10)” value read?
Its value is 0.0325.

For “TTGGCGGCATGGACCGGTTTTCCCGGTAATCCGTATTTGCT (site TTAGCGGCTAG)”, which “recombinant UMI read abundance (log10)” value is on record?
Its value is 1.3.

Which “recombinant UMI read abundance (log10)” value does the source give for “TTGGCGGCATGGACCGGTTTTCCCGGTAATCCGTATTTGCT (site TTCGCGGCTAG)” here?
Its value is 0.

Which “recombinant UMI read abundance (log10)” value does the source give for “TTGGCGGCATGGACCGGTTTTCCCGGTAATCCGTATTTGCT (site TTGGCGGCTAG)” here?
The value was 1.44.

With “TTGGCGGCATGGACCGGTTTTCCCGGTAATCCGTATTTGCT (site TTTGCGGCTAG)” as the sequence, how does the “recombinant UMI read abundance (log10)” value read?
Its value is 0.00953.

For “TTGGGTGCATGGACCGGTTTTCCCGGTAATCCGTATTTGAT (site TTGGGTGCTAT)”, which “recombinant UMI read abundance (log10)” value is on record?
Its value is 1.6.

For “TTGGTTTCATGGACCGGTTTTCCCGGTAATCCGTATTTGTT (site TTGGTTTCTAA)”, which “recombinant UMI read abundance (log10)” value is on record?
The value was 0.417.

For “TTGTAGACATGGACCGGTTTTCCCGGTAATCCGTATTTGCA (site TTGTAGACTTG)”, which “recombinant UMI read abundance (log10)” value is on record?
Its value is 1.87.

For “TTGTCTACATGGACCGGTTTTCCCGGTAATCCGTATTTGCG (site TTGTCTACTCG)”, which “recombinant UMI read abundance (log10)” value is on record?
The value was 0.0108.

For “TTGTGACCATGGACCGGTTTTCCCGGTAATCCGTATTTGAT (site TTGTGACCTAT)”, which “recombinant UMI read abundance (log10)” value is on record?
Its value is 0.00587.

Which “recombinant UMI read abundance (log10)” value does the source give for “TTGTGAGCATGGACCGGTTTTCCCGGTAATCCGTATTTGGT (site TTGTGAGCTAC)” here?
The value was 0.701.

Which “recombinant UMI read abundance (log10)” value does the source give for “TTGTTCCCATGGACCGGTTTTCCCGGTAATCCGTATTTGTG (site TTGTTCCCTCA)” here?
The value was 0.187.

Which “recombinant UMI read abundance (log10)” value does the source give for “TTTAATTCATGGACCGGTTTTCCCGGTAATCCGTATTTGCA (site TTTAATTCTTG)” here?
Its value is 0.

Which “recombinant UMI read abundance (log10)” value does the source give for “TTTAATTCATGGACCGGTTTTCCCGGTAATCCGTATTTGGG (site TTTAATTCTCC)” here?
The value was 1.33.

With “TTTATTACATGGACCGGTTTTCCCGGTAATCCGTATTTGGT (site TTTATTACTAC)” as the sequence, how does the “recombinant UMI read abundance (log10)” value read?
Its value is 0.0132.

For “TTTATTCCATGGACCGGTTTTCCCGGTAATCCGTATTTGAC (site TTTATTCCTGT)”, which “recombinant UMI read abundance (log10)” value is on record?
Its value is 0.

Which “recombinant UMI read abundance (log10)” value does the source give for “TTTCAGACATGGACCGGTTTTCCCGGTAATCCGTATTTGTT (site TTTCAGACTAA)” here?
Its value is 0.004.

For “TTTCCAACATGGACCGGTTTTCCCGGTAATCCGTATTTGAA (site TTTCCAACTTT)”, which “recombinant UMI read abundance (log10)” value is on record?
The value was 0.0166.

With “TTTCCCGCATGGACCGGTTTTCCCGGTAATCCGTATTTGTC (site TTTCCCGCTGA)” as the sequence, how does the “recombinant UMI read abundance (log10)” value read?
Its value is 1.42.

Which “recombinant UMI read abundance (log10)” value does the source give for “TTTCCGGCATGGACCGGTTTTCCCGGTAATCCGTATTTGCT (site TTTACGGCTAG)” here?
The value was 0.0335.

Which “recombinant UMI read abundance (log10)” value does the source give for “TTTCCGGCATGGACCGGTTTTCCCGGTAATCCGTATTTGCT (site TTTCCGGCTAG)” here?
Its value is 0.016.

Which “recombinant UMI read abundance (log10)” value does the source give for “TTTCCGGCATGGACCGGTTTTCCCGGTAATCCGTATTTGCT (site TTTGCGGCTAG)” here?
The value was 0.00591.

For “TTTCCGGCATGGACCGGTTTTCCCGGTAATCCGTATTTGCT (site TTTTCGGCTAG)”, which “recombinant UMI read abundance (log10)” value is on record?
Its value is 0.0123.

For “TTTCTAGCATGGACCGGTTTTCCCGGTAATCCGTATTTGAC (site TTTCTAGCTGT)”, which “recombinant UMI read abundance (log10)” value is on record?
The value was 0.582.

Which “recombinant UMI read abundance (log10)” value does the source give for “TTTCTGTCATGGACCGGTTTTCCCGGTAATCCGTATTTGAA (site TTTCTGTCTTT)” here?
Its value is 0.0118.

For “TTTGCCTCATGGACCGGTTTTCCCGGTAATCCGTATTTGCC (site TTTGCCTCTGG)”, which “recombinant UMI read abundance (log10)” value is on record?
Its value is 1.48.

With “TTTGCGGCATGGACCGGTTTTCCCGGTAATCCGTATTTGAT (site TTTGCGGCTAA)” as the sequence, how does the “recombinant UMI read abundance (log10)” value read?
Its value is 0.015.

With “TTTGCGGCATGGACCGGTTTTCCCGGTAATCCGTATTTGAT (site TTTGCGGCTAC)” as the sequence, how does the “recombinant UMI read abundance (log10)” value read?
Its value is 0.00828.

With “TTTGCGGCATGGACCGGTTTTCCCGGTAATCCGTATTTGAT (site TTTGCGGCTAG)” as the sequence, how does the “recombinant UMI read abundance (log10)” value read?
The value was 0.

For “TTTGCGGCATGGACCGGTTTTCCCGGTAATCCGTATTTGAT (site TTTGCGGCTAT)”, which “recombinant UMI read abundance (log10)” value is on record?
Its value is 0.414.

For “TTTGCGGCATGGACCGGTTTTCCCGGTAATCCGTATTTGCT (site ATTGCGGCTAG)”, which “recombinant UMI read abundance (log10)” value is on record?
The value was 0.00696.

With “TTTGCGGCATGGACCGGTTTTCCCGGTAATCCGTATTTGCT (site CTTGCGGCTAG)” as the sequence, how does the “recombinant UMI read abundance (log10)” value read?
The value was 0.00458.

For “TTTGCGGCATGGACCGGTTTTCCCGGTAATCCGTATTTGCT (site GTTGCGGCTAG)”, which “recombinant UMI read abundance (log10)” value is on record?
Its value is 0.00615.

With “TTTGCGGCATGGACCGGTTTTCCCGGTAATCCGTATTTGCT (site TATGCGGCTAG)” as the sequence, how does the “recombinant UMI read abundance (log10)” value read?
The value was 0.00481.

With “TTTGCGGCATGGACCGGTTTTCCCGGTAATCCGTATTTGCT (site TCTGCGGCTAG)” as the sequence, how does the “recombinant UMI read abundance (log10)” value read?
Its value is 0.

With “TTTGCGGCATGGACCGGTTTTCCCGGTAATCCGTATTTGCT (site TGTGCGGCTAG)” as the sequence, how does the “recombinant UMI read abundance (log10)” value read?
Its value is 0.0128.

With “TTTGCGGCATGGACCGGTTTTCCCGGTAATCCGTATTTGCT (site TTAGCGGCTAG)” as the sequence, how does the “recombinant UMI read abundance (log10)” value read?
Its value is 0.486.

Which “recombinant UMI read abundance (log10)” value does the source give for “TTTGCGGCATGGACCGGTTTTCCCGGTAATCCGTATTTGCT (site TTCGCGGCTAG)” here?
The value was 0.

Which “recombinant UMI read abundance (log10)” value does the source give for “TTTGCGGCATGGACCGGTTTTCCCGGTAATCCGTATTTGCT (site TTGGCGGCTAG)” here?
Its value is 0.0258.

For “TTTGCGGCATGGACCGGTTTTCCCGGTAATCCGTATTTGCT (site TTTACGGCTAG)”, which “recombinant UMI read abundance (log10)” value is on record?
The value was 0.658.

For “TTTGCGGCATGGACCGGTTTTCCCGGTAATCCGTATTTGCT (site TTTCCGGCTAG)”, which “recombinant UMI read abundance (log10)” value is on record?
The value was 0.0114.

With “TTTGCGGCATGGACCGGTTTTCCCGGTAATCCGTATTTGCT (site TTTGAGGCTAG)” as the sequence, how does the “recombinant UMI read abundance (log10)” value read?
The value was 0.00621.

Which “recombinant UMI read abundance (log10)” value does the source give for “TTTGCGGCATGGACCGGTTTTCCCGGTAATCCGTATTTGCT (site TTTGCAGCTAG)” here?
Its value is 0.0183.

For “TTTGCGGCATGGACCGGTTTTCCCGGTAATCCGTATTTGCT (site TTTGCCGCTAG)”, which “recombinant UMI read abundance (log10)” value is on record?
Its value is 0.00324.

With “TTTGCGGCATGGACCGGTTTTCCCGGTAATCCGTATTTGCT (site TTTGCGACTAG)” as the sequence, how does the “recombinant UMI read abundance (log10)” value read?
Its value is 0.

With “TTTGCGGCATGGACCGGTTTTCCCGGTAATCCGTATTTGCT (site TTTGCGCCTAG)” as the sequence, how does the “recombinant UMI read abundance (log10)” value read?
The value was 0.00251.

Which “recombinant UMI read abundance (log10)” value does the source give for “TTTGCGGCATGGACCGGTTTTCCCGGTAATCCGTATTTGCT (site TTTGCGGCTAA)” here?
The value was 0.0285.

For “TTTGCGGCATGGACCGGTTTTCCCGGTAATCCGTATTTGCT (site TTTGCGGCTAC)”, which “recombinant UMI read abundance (log10)” value is on record?
The value was 0.0071.
